Consider seven compounds from US20240174695A1, “Spirocycle Containing Bicyclic Heteroaryl Compounds” (Protego Biopharma, Inc., priority 2022, published 2024).

The test has as its system Recombinant amyloidogenic full length light chain protein WIL-FL T46L. The experiment in a line: Differential Scanning Fluorimetry Assay (thermal shift assay). Note: test concentration or dose not given here. The class given is binding. To be noted: Thermal Shift Protein Stability Kit (Biotium), 96-well plates; protein and compounds incubated at RT for 30 min before adding the dye. The method, boiled down:
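E. coli-expressed full-length WIL-FL T46L light chain pre-incubated with compound 30 min at RT before dye addition. Tm obtained by curve fitting of the dye thermal-melt signal; value is ΔTm, compound minus vehicle, in °C.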
Background: Differential scanning fluorimetry follows unfolding on heating by fluorescence.

The structures appear in SMILES notation.

Turning to `CCOC(=O)c1ccc(N2CCC3(CC2)CN(CC(O)c2nc4c(C)cc(OCC5(c6ccccc6)CC5)cn4n2)C(=O)N3)cn1` (stereo not shown) [Compound 130], the “DSF temperature shift: [Tm]compound−[Tm]vehicle” value (“DSF temperature shift” below) is “*** (>1-1.5° C.=***)”.
Regarding `Cc1cc(OCC2(c3ccccc3)CC2)cn2nc(C(O)CN3CC4(CCN(c5cnccn5)CC4)NC3=O)nc12` (stereo not shown) [Compound 58], the “DSF temperature shift” value was “***** (>2.5° C.=*****)”.
As for `Cc1cc(OC[C@H](C)c2ccccc2)cn2nc(CCN3CC4(CCN(c5ncn(C)n5)CC4)NC3=O)nc12` [Compound 120], the entry is “**** (>1.5-2.5° C.=****)”; as for `Cc1cc(OCC2(c3ccccc3)CC2)cn2nc(C(O)CN3CC4(CCN(c5cncnc5)CC4)NC3=O)nc12` (stereo not shown) [Compound 49], “**** (>1.5-2.5° C.=****)”.
Consider `COc1ncccc1N1CCC2(CC1)CN(CCc1nc3c(C)cc(OC[C@H](C)c4ccccc4)cn3n1)C(=O)N2` [Compound 139], for which the “DSF temperature shift” value is “*** (>1-1.5° C.=***)”.
As for `Cc1cc(OC[C@H](C)c2ccccc2)cn2nc(CCN3CC4(CCN(c5cccnc5C(F)(F)F)CC4)NC3=O)nc12` [Compound 104], the entry is “** (>0.5-1° C.=**)”.
As for `Cc1cc(OC[C@H](C)c2ccccc2)cn2nc(C(C)CN3CC4(CN(c5ccnc(O)c5)C4)NC3=O)nc12` (stereo partly drawn) [Compound 68, 2-(2-hydroxy-4-pyridyl)-7-[2-[8-methyl-6-[(2R)-2-phenylpropoxy]-[1,2,4]triazolo[1,5-a]pyridin-2-yl]propyl]-2,5,7-triazaspiro[3.4]octan-6-one], the “DSF temperature shift” value is given as “**** (>1.5-2.5° C.=****)”.
